Test [1] has as its target T1, human GST-p38 kinase alpha (Homo sapiens, UniProt Q16539).
T1 construct: The coding region of the human p38a cDNA was obtained by PCR-amplification from RNA isolated from the human monocyte cell line THP.1; made in house; host or cells: E. coli DH10B
In words: p38 kinase in vitro assay, second format, phosphorylation of EGFRP with 33P-ATP. In kind it is biochemical. The procedure:
A second assay format was also employed that is based on p38 kinase alpha induced phosphorylation of EGFRP (epidermal growth factor receptor peptide, a 21 mer) in the presence of ^33P-ATP. Compounds were tested in 10 fold serial dilutions over the range of 100 μM to 0.001 μM in 10% DMSO. Each concentration of inhibitor was tested in triplicate. Compounds were evaluated in 50 μl reaction volumes in the presence of 25 mM Hepes pH 7.5, 10 mM magnesium acetate, 4% glycerol, 0.4% bovine serum albumin, 0.4 mM DTT, 50 μM unlabeled ATP, 25 μg EGFRP (200 μM), and 0.05 uCi gamma ^33P-ATP. Reactions were initiated by addition of 0.09 μg of activated, purified human GST-p38 kinase alpha. Activation was carried out using GST-MKK6 (5:1, p38: MKK6) for one hour at 30° C. in the presence of 50 μM ATP. Following incubation for 60 minutes at room temperature, the reaction was stopped by addition of 150 μl of AG 1×8 resin in 900 mM sodium formate buffer, pH 3.0 (1 volume resin to 2 volumes buffer). The mixture was mixed three times with pipetting and the resin was allowed to settle. A total of 50 μl of clarified solution head volume was transferred from the reaction wells to Microlite-2 plates. 150 μl of Microscint 40 was then added to each well of the Microlite plate, and the plate was sealed, mixed, and counted.

For test [2], the system named is TNF-α. In words: LPS stimulation of TNF production by U937 cells. The test is classed as cell-based, human. Conditions: Homo sapiens; for inhibition at 1 µM: U-937, @ 1.0 uM, read-out: U937 Cell % inhib @ conc. In short, it runs like this: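 PMA-differentiated human U937 cells (20 ng/ml PMA, 24 h, then 24-48 h rest) at 2 million cells/ml, 0.1% DMSO final, stimulated with E. coli LPS (100 ng/ml final) for 4 h at 37° C. TNF-α in medium measured by ELISA; IC50 in μM.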

The subject of test [3] is TNF-α. The test is described as follows: Rat assay: LPS-challenged rats, serum TNF-α by ELISA. Conditions: Rattus norvegicus, po; for inhibition in vivo at 10 mg/kg: Table 9, dose 10 mg/kg. The test is classed as in vivo. As for the experimental part: The efficacy of the novel compounds in blocking the production of TNF also was evaluated using a model based on rats challenged with LPS. Male Harlen Lewis rats [Sprague Dawley Co.] were used in this model. Each rat weighed approximately 300 g and was fasted overnight prior to testing. Compounds administration was typically by oral gavage (although intraperitoneal, subcutaneous and intravenous administration were also used in a few instances) 1 to 24 hours prior to the LPS challenge. Rats were administered 30 μg/kg LPS [salmonella typhosa, Sigma Co.] intravenously via the tail vein. Blood was collected via heart puncture 1 hour after the LPS challenge. Serum samples were stored at −20° C. until quantitative analysis of TNF-α by Enzyme Linked-Immuno-Sorbent Assay (“ELISA”) [Biosource]. Additional details of the assay are set forth in Perretti, M., et al., Br. J. Pharmacol. (1993), 110, 868-874, which is incorporated by reference in this application.
In vivo assessment of the ability of the compounds to inhibit LPS-stimulated TNF release in the rat is shown in the column identified as:
wherein in the dose is milligram per kilogram (mpk) administered by oral gavage and the predose time indicates the number of hours before LPS challenge when the compound is administered.

For test [4], the target named is T2, human p38 kinase alpha (Homo sapiens, UniProt Q16539).
T2 construct: The coding region of the human p38a cDNA was obtained by PCR-amplification from RNA isolated from the human monocyte cell line THP.1; GST (N); made in house; host or cells: E. coli DH10B
In words: p38 kinase in vitro assay, phosphorylation of biotinylated PHAS-I with gamma 32P-ATP. In kind it is biochemical. In short, it runs like this: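 Radiometric filter-capture read-out: streptavidin plates trap biotin-PHAS-I labelled by activated (MKK6) human p38α from γ-32P-ATP. Buffer 25 mM HEPES pH 7.5, 10 mM magnesium acetate, 50 μM cold ATP; reactions 1 h or overnight at 30 °C; inhibitors 10-fold dilutions 100 to 0.001 μM, triplicates, 1% DMSO.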

The mark [5] stands for this setting: p38α in vitro, EGFRP assay procedure, read-out: p38^2 IC50.
Setting [6] is: U-937, LPS-stimulated U937 cells, read-out: U937 IC50.
[7] abbreviates: Table 9, 10% DMSO, read-out: p38α Kinase Assay IC50.
The mark [8] stands for this setting: Table 8, 10% DMSO, read-out: p38α Kinase Assay IC50.
[9] abbreviates: Table 8, dose 3.0 mg/kg, read-out: Rat LPS Assay % Inhibition.
[10] abbreviates: p38α in vitro, PHAS-I assay procedure, read-out: p38^1 IC50.
Setting [11] is: Table 10, 10% DMSO, @ 1.0 hour, read-out: p38α Kinase Assay IC50.
[12] abbreviates: -4 h, 3 mpk oral gavage, -4h before LPS, read-out: Rat LPS Model % inhib @ dose @ predose time.
Setting [13] is: read-out: P38 alpha kinase IC50.

The source of these data is US6525059B1, “Substituted pyrazoles as p38 kinase inhibitors” (G. D. Searle & Company, priority 1998, dated 2003).

Several values for one entry are separate records, joined by “and”; a condition that tells them apart may be missing. Equal values may be shown once. Where a name gives a salt, the structure may show the parent alone. Read-outs that look alike come from different tables or passages of the source.

Usually IC50 stands for the concentration that gives 50% inhibition.

T1 sequence (Q16539 whole entry): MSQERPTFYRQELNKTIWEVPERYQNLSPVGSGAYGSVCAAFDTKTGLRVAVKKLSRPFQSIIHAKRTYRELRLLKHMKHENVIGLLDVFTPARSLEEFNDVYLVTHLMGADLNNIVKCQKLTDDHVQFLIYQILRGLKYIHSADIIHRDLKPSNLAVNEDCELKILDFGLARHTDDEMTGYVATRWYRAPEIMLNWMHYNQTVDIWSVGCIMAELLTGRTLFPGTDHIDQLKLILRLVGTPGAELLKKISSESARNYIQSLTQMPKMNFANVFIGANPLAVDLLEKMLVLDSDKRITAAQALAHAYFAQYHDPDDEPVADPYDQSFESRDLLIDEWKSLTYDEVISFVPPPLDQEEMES
T2 sequence (Q16539 whole entry): as above

For the molecule `Fc1ccc(-c2n[nH]cc2-c2ccnc(NCc3cccc(F)c3)c2)cc1` [Example A-254, N-[(3-fluorophenyl)methyl]-4-[3-(4-fluorophenyl)-1H-pyrazol-4-yl]-2-pyridinamine], the IC50 in test [1] (setting [5]) was found to be 81 nM; in test [2] (setting [6]), 141 nM.
In turn, `Fc1ccc(-c2n[nH]cc2-c2ccnc(NCCN3CCCCC3)c2)cc1` [Example A-375, 4-[3-(4-fluorophenyl)-1H-pyrazol-4-yl]-N-[2-(1-piperidinyl)ethyl]-2-pyridinamine] registered an inhibition in vivo at 20 mg/kg in test [3] (Table 9, dose 20 mg/kg) of 43%. In test [1] (setting [7]), the IC50 came out at 2300 nM.
For `O=C(c1n[nH]c(-c2ccc(F)cc2)c1-c1ccncc1)N1CCNCC1` [A-314, Step 1, 1-[[5-(4-fluorophenyl)-4-(4-pyridinyl)-1H-pyrazol-3-yl]carbonyl]piperazine, monhydrate], in test [1] (setting [8]), the IC50 was found to be 370 nM.
With `CS(=O)(=O)N1CCN(c2n[nH]c(-c3ccc(Cl)cc3)c2-c2ccncc2)CC1` [Example A-320, 1-[5-(4-chlorophenyl)-4-(4-pyridinyl)-1H-pyrazol-3-yl]-4-(methylsulfonyl)piperazine, monohydrate], the inhibition in vivo at 3 mg/kg in test [3] (setting [9]) amounted to 1%. Further, the IC50 in test [1] (setting [8]) was 50 nM and 150 nM.
On to `COc1ccc(CNc2cc(-c3c[nH]nc3-c3ccc(Cl)cc3)ccn2)cc1` [Example A-246, 4-[3-(4-chlorophenyl)-1H-pyrazol-4-yl]-N-[(4-methoxy-phenyl)methyl]-2-pyridinamine], for which the IC50 in test [4] (setting [10]) was 403 nM; in test [1] (setting [5]), 592 nM; in test [2] (setting [6]), 495 nM.
In test [3], `O=C1CCN(c2n[nH]c(-c3ccc(F)cc3)c2-c2ccncc2)CC1` [Example A-378, 1-[5-(4-fluorophenyl)-4-(4-pyridinyl)-1H-pyrazol-3-yl]-4-piperidinone] showed an inhibition in vivo at 10 mg/kg of 73%. Besides, in test [1] (setting [7]), the IC50 was found to be 6200 nM.
As to `O=C(O)C(Cc1cnc[nH]1)Sc1[nH]nc(-c2ccc(Cl)cc2)c1-c1ccncc1` (stereo not drawn) [Example A-471], the IC50 in test [1] (setting [11]) came out at 4920 nM.
`C[C@@H](NS(=O)(=O)c1ccc(C#N)cc1)c1[nH]nc(-c2ccc(F)cc2)c1-c1ccncc1` [Example B-0479]: the inhibition in vivo at 3 mg/kg in test [3] (setting [12]) turned out to be 15%. The IC50 in test [4] (setting [13]) is 31 nM. Moreover, in test [2], the inhibition at 1 µM came out at 90%.
For the molecule `CC1CN(c2[nH]nc(-c3ccc(Cl)cc3)c2-c2ccncc2)CCN1` (stereo not drawn) [Example A-343, 1-[5-(4-chlorophenyl)-4-(4-pyridinyl)-1H-pyrazol-3-yl]-3-methylpiperazine], in test [3] (Table 8, dose 20.0 mg/kg), the inhibition in vivo at 20 mg/kg was determined as 96%. For the same molecule, the IC50 in test [1] (setting [8]) turned out to be 16 nM.
For `OC1CCN(c2[nH]nc(-c3ccc(F)cc3)c2-c2ccncc2)CC1` [Example A-379, 1-[5-(4-fluorophenyl)-4-(4-pyridinyl)-1H-pyrazol-3-yl]-4-piperidinol], the inhibition in vivo at 10 mg/kg in test [3] worked out at 61%. In addition, in test [1] (setting [7]), the IC50 was 190 nM.
For `Cc1cccc(C(=O)Cc2ccncc2)c1` [A-389, Step 1, 1-tolyl-2-(4-pyridyl)ethanone], the IC50 in test [1] (setting [11]) turned out to be 1720 nM.
Take `C#CCNc1nccc(-c2cn[nH]c2-c2ccc(F)cc2)n1` [Example A-324, 4-[3-(4-fluorophenyl)-1H-pyazol-4-yl]-N-2-propynyl-2-pyrimidinamine]: the inhibition in vivo at 3 mg/kg in test [3] (setting [9]) was found to be 44%. Further, the IC50 in test [1] (setting [8]) worked out at 80 nM.
In the case of `Cn1cc(-c2ccnc(F)c2)c(-c2ccc(F)cc2)n1` [Example A-256, 2-fluoro-4-[3-(4-fluorophenyl)-1-methyl-1H-pyrazol-4-yl]pyridine], the 50% inhibitory concentration (IC50) was found to be 813 nM in test [1] (setting [5]) and 456 nM in test [2] (setting [6]).
Consider `C[C@@H](NS(=O)(=O)c1ccc(-c2ccccc2)cc1)c1[nH]nc(-c2ccc(F)cc2)c1-c1ccncc1` [Example B-0481], for which the inhibition in vivo at 3 mg/kg in test [3] (setting [12]) was 56%. In test [4] (setting [13]), the IC50 is 14 nM. Further, the inhibition at 1 µM in test [2] amounted to 95%.
`Cc1cccc(-c2nn(C)cc2-c2ccnc(C)c2)c1` [Example A-235, 2-methyl-4-[1-methyl-3 (or 5)-(3-methylphenyl)-1H-pyrazol-4-yl]pyridine]: in test [1] (setting [5]), the IC50 amounted to 104 nM.
Regarding `C[C@@H](NS(=O)(=O)Cc1ccccc1)c1[nH]nc(-c2ccc(F)cc2)c1-c1ccncc1` [Example B-0389], the inhibition in vivo at 3 mg/kg in test [3] (setting [12]) stood at 62%. Further, the IC50 is 10 nM in test [4] (setting [13]) and 50 nM in test [2] (U-937, TNF production, LPS-stimulated human U937 cells, read-out: U937 Cell IC50).
Regarding `Fc1cc(-c2c[nH]nc2-c2ccc(F)c(F)c2)ccn1` [Example A-257, 4-[3-(3,4-difluorophenyl)-1H-pyrazol-4-yl]-2-fluoropyridine], the IC50 is 1080 nM in test [4] (setting [10]), less than 10 nM in test [1] (setting [5]) and 517 nM in test [2] (setting [6]).
Take `O=C(C(=C(SCC1OCCO1)SCC1OCCO1)c1ccncc1)c1ccc(F)cc1` [Example A-449]: the IC50 in test [1] (setting [11]) amounted to 59000 nM.
For the molecule `Clc1ccc(-c2n[nH]cc2-c2ccnc(NCc3ccccn3)c2)cc1` [Example A-247, N-[4-[3-(4-chlorophenyl)-1H-pyrazol-4-yl]-2-pyridinyl]-2-pyridinemethanamine], the IC50 is less than 10 nM in test [1] (setting [5]) and 166 nM in test [2] (setting [6]).
For `C=CCn1cc(-c2ccncc2)c(-c2ccc(F)cc2)n1` [Example A-385, 4-[3-(4-fluorophenyl)-1-(2-propenyl)-1H-pyrazol-4-yl]pyridine, monohydrochloride], the IC50 in test [1] (setting [7]) was 180 nM and 1250 nM.
On to `Ic1ccc(-c2n[nH]cc2-c2ccncc2)cc1` [Example A-250, 4-[3-(4-iodophenyl)-1H-pyrazol-4-yl]pyridine], for which the IC50 in test [1] (setting [5]) stood at 2870 nM.
On to `Sc1[nH]nc(-c2ccc(Cl)cc2)c1-c1ccncc1` [Example A-455], for which the IC50 in test [1] (setting [11]) was 12900 nM.
In the case of `COc1ccccc1N1CCN(c2n[nH]c(-c3ccc(Cl)cc3)c2-c2ccncc2)CC1` [Example A-336, 1-[5-(4-chlorophenyl)-4-(4-pyridinyl)-1H-pyrazol-3-yl]-4-(2-methoxyphenyl)piperazine], the IC50 in test [1] (setting [8]) stood at 1160 nM.
Regarding `Clc1ccc(-c2n[nH]c(SC3CCNCC3)c2-c2ccncc2)cc1` [A-459 (salt)], the IC50 in test [1] (setting [11]) was found to be 100 nM.
With `Fc1ccc(-c2n[nH]cc2-c2ccnc(/C=C/c3ccccc3)c2)cc1` [Example A-244, (E)-4-[3-(4-fluorophenyl)-1H-pyrazol-4-yl]-2-(2-phenylethenyl)pyridine], in test [1] (setting [5]), the IC50 stood at 99 nM.
Consider `O=C(O)CSc1[nH]nc(-c2ccc(Cl)cc2)c1-c1ccncc1` [Example A-461], for which the IC50 in test [1] (setting [11]) came to 30600 nM.
As to `O=C(C(=C1SCS1)c1ccncc1)c1ccc(OC(F)(F)F)cc1` [Example A-395], the IC50 in test [1] (setting [11]) is more than 100000 nM.
`Cn1cc(-c2ccncc2)c(-c2cccc(C(F)(F)F)c2)n1` [Example A-238, 4-[1-methyl-3-[3-(trifluoromethyl)phenyl]-1H-pyrazol-4-yl]pyridine]: the values for the IC50 in test [1] (setting [5]) and in test [2] (setting [6]) were 177 nM and 402 nM, respectively.
